The values that follow are results of earlier work, collected in US10952975B2, “Compositions and methods for treatment of cancer” (priority 2019, dated 2021).

For data set [1] the following is noted: clinical studies.
Data set [2] has as its system murine tumors.
Data set [3] deals with T1, MAT2A (Homo sapiens, UniProt P31153). The note with it: cell-free; [L-Met]=[ATP]=1 mM, [MAT2A]=10 μg/mL; 20 min preincubation, 30 min reaction; read-out: IC50, MAT2A-catalyzed SAM synthesis.
Data set [4] deals with LS174T cells. The conditions noted are these: 36 h, 10 μM FIDAS-3.
The target in data set [5] is T1, MAT2A. The conditions noted are these: in vitro.
For data set [6] the following is noted: patients with advanced solid tumors.

Read-outs that look alike come from different tables or passages of the source.

T1 sequence (P31153 whole entry): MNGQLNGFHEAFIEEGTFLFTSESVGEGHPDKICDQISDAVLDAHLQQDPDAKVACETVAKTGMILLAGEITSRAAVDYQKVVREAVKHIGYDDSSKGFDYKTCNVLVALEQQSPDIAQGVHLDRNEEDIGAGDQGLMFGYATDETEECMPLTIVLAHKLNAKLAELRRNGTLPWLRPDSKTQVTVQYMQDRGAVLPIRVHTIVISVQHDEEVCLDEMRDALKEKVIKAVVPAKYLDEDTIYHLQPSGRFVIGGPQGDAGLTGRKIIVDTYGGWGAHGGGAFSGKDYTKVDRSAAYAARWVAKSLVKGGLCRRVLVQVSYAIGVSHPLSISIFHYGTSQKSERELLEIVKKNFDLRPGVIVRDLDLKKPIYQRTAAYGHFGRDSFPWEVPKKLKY

Take `COc1ccc(/C=C\c2cc(OC)c(OC)c(OC)c2)cc1OP(=O)([O-])[O-].[Na+].[Na+]` [CA-4P, Disodium CA-4-3-O-phosphate]: in data set [1], the maximum tolerated dose is 60-68 mg/m^2.
Consider `Cc1ccc2c(=O)c3cccc(CC(=O)O)c3oc2c1C` [DMXAA, 5,6-dimethylxanthenone-4-acetic acid], for which, in data set [2], the “time to arrest of tumor blood flow after administration” value is listed as not above 30 min.
Consider `CN(C)c1ccc(/C=C/c2c(F)cccc2F)cc1` [FIDAS-3], for which the IC50 in data set [3] was 4.9 µM. For the same molecule, in data set [4], the “decrease of SAH level” value is listed as 56% and the “decrease of SAM level” value was 64%. Moreover, the “competition against SAM for MAT2A binding” value in data set [5] is “effectively competes against SAM”.
`COc1cc(/C=C\c2ccc(OC)c(OP(=O)(O)O)c2OP(=O)(O)O)cc(OC)c1OC` [Oxi4503, Tetrasodium Combretastatin A-1 2′,3′-O-diphosphate]: in data set [6], the “dose at which a tumor response was seen” value is 14 mg/m^2 and the “doses with maximum tumor perfusion reductions” value is not below 11 mg/m^2. Also, the maximum tolerated dose in data set [6] (escalation to 14 mg/m^2 was possible) was 8.5 mg/m^2.
